Data published in patent US4469631A, “Fusion peptides comprising an expressible bacterial gene and β-endorphin” (The Regents of the University of California, priority 1982, dated 1984).

Legend:
opiate receptors = details: Li, C. H., et al, Proc. Natl. Acad. Sci. 76, 3276 (1979); cited from earlier work
[1] = tested on: prostaglandin E1-stimulated adenylate cyclase of NG 108-15 cells; details: literature; cited from earlier work
[2] = tested on: antiserum directed against mouse β-endorphin; assay: Immunological activity: competition with 125I-labeled human β-endorphin for antiserum (radioimmunoassay); assay type: binding; details: dilution series of extract, 4° C., 24 hours; FIG. 5
Description: Immunological activity of β-endorphin produced according to the present invention was measured by its ability to compete with radioactively labeled human β-endorphin for antiserum directed against mouse β-endorphin. The human hormone differs from that of mouse only at position 27, where a tyrosine is present instead of histidine residue. […] Antiserum to mouse β-endorphin was prepared as described by Allen, et al., Proc. Nat'l. Acad. Sci. 75, 4972 (1978). […]
In the assay, a dilution series of β-endorphin sample prepared according to the present invention was incubated with a fixed amount of labeled human endorphin and a fixed amount of antiserum. […] The percentage of radioactivity remaining in the pellet was compared to the total radioactivity determined prior to incubation and plotted as a function of the concentration of the cell extracts.

[3] = tested on: rat brain opiate receptors; assay: Receptor binding activity: competitive inhibition of binding of labeled opiate agonist or antagonist to rat brain membranes; details: result in words
Description: The opiate receptor preparation was prepared from rat membrane preparation isolated from male Sprague-Dawley rats (200-220 g) killed by decapitation. The brains, except for the cerebellum, were homogenized in 40 volumes of ice-cold Tris-HCl buffer pH 7.7. The homogenates were centrifuged at 600 g for 5 minutes, then the supernatant fluid was centrifuged at 49,000 g at 4° C. for 15 minutes. The pellets were re-suspended in 5 ml of 0.05 M Tris-HCl buffer pH 7.7 and incubated at 37° C. for 30 minutes, then centrifuged at 49,000 g at 4° C. for another 15 minutes. The final pellet from each rat brain was then re-suspended in 40 ml of 0.05 M Tris-HCl buffer pH 7.7 containing 100 μg/ml of Bacitracin and used for the binding assays.
The binding experiments were performed either at 25° C. for 20 minutes or at 0° C. for 3 hours. The reaction mixtures contained 1 ml of the rat membrane preparation as described, 1.5 nM of ^3 H-methionine enkephalinamide (38 Ci/m Mole) or ^3 H-naloxone (25 Ci/m Mole) together with bacterial extracts from pβgal or pβgal-end transformed cultures (4.5 mg protein for enkephalinamide rections and 0.65 μg protein for naloxone reactions). At the end of the binding reaction the mixture was filtered under vacuum over glass fiber filters (Whatman, Clifton, N.J., GH-B filters). […]

[4] = tested on: prostaglandin E1-stimulated adenylate cyclase of NG 108-15 cells; assay: Inhibition of prostaglandin E1-stimulated adenylate cyclase activity in neuroblastoma-glioma hybrid cell line NG 108-15; assay type: biochemical; details: result in words; for reversal of the adenylate cyclase inhibition by naloxone: naloxone added

In the case of Gly^31 -endorphinylglycine, the “opiate agonist potency relative to endorphin” value (opiate receptors) is listed as “more potent opiate agonists than endorphin itself”.
For `C=CCN1CC[C@]23c4c5ccc(O)c4O[C@H]2C(=O)CC[C@@]3(O)[C@H]1C5` [naloxone], the “prevention of the inhibitory effect of morphine on stimulated adenylate cyclase” value [1] is given as “the inhibitory affect of morphine can be prevented by naloxone”.
In the case of `CN1CC[C@]23c4c5ccc(O)c4O[C@H]2[C@@H](O)C=C[C@H]3[C@H]1C5` [morphine], the “inhibition of prostaglandin E1 stimulation of adenylate cyclase” value [1] is given as “This stimulation is inhibited by morphine”.
In the case of “Gly^31 -endorphin (YGGFMTSEKSQTPLVTLFKNAIIKNAYKKGG; Beta-endorphin; UniProt P01189 237-267, looked up, variant E31G) ["super-agonist" endorphin analog described by Li, C; H]”, the “opiate agonist potency relative to endorphin” value (opiate receptors) is given as “more potent opiate agonists than endorphin itself”.
In the case of Gly^31 -endorphinamide, the “opiate agonist potency relative to endorphin” value (opiate receptors) is given as “more potent opiate agonists than endorphin itself”.
With “β-endorphin (YGGFMTSEKSQTPLVTLFKNAIIKNAHKKGQ; Beta-endorphin; UniProt P01193 205-235, looked up) [mouse β-endorphin, 31 amino acid polypeptide, released from the bacterial β-galactosidase fusion protein according to the invention]” the “competition with labeled human β-endorphin for antiserum against mouse β-endorphin” value [2] was “immunologically reactive with antiserum raised against mouse endorphin”, the “displacement of opiate agonist (enkephalinamide) and opiate antagonist (naloxone) from rat brain opiate receptors” value [3] was “effective inhibitor” and the “displacement of opiate agonist (enkephalinamide) and opiate antagonist (naloxone) from rat brain opiate receptors” value ([3]; listed as Endorphin) was “displaced both the opiate agonist and the opiate antagonist”. The “inhibition of prostaglandin E1 stimulation of adenylate cyclase activity” value [4] was “inhibited the adenylate cyclase activity”, the “reversal of the adenylate cyclase inhibition by naloxone” value [4] was “the inhibition was reversed by the addition of naloxone” and the “reversal of the adenylate cyclase inhibition by naloxone” value ([4]; listed as Endorphin) was “inhibition was reversed by addition of the opiate antagonist naloxone”. For the same compound, the “inhibition of prostaglandin E1 stimulation of adenylate cyclase activity” value ([4]; listed as Endorphin) was “significant inhibition”.
